Here are results for 1 compound from ChEMBL document CHEMBL4190187, “Discovery of pyrazolopyrimidine derivatives as novel inhibitors of ataxia telangiectasia and rad3 related protein (ATR)” (Bioorg Med Chem Lett, 2017).

As usually defined, the inhibition is the relative decrease from the control value, in per cent.

Data set [1] addresses Serine/threonine-protein kinase 17B (Homo sapiens) (UniProt O94768). The data set is described as follows: Inhibition of recombinant full-length human DRAK2 at 1 uM using KKRPQRRYSNVF as substrate after 120 mins in presence of [gamma-33P]ATP by scintillation counting method.
Data set [2] deals with Dual specificity protein kinase CLK2 (Homo sapiens) (UniProt P49760). Kind of data set: Inhibition of recombinant human CLK2 (138 to end residues) at 1 uM using YRRAAVPPSPSLSRHSSPHQS(p)EDEEE as substrate after 40 mins in presence of [gamma-33P]ATP by scintillation counting method.
Sequence of Dual specificity protein kinase CLK2 (Homo sapiens) (P49760 whole entry, looked up, the tested form may be a part): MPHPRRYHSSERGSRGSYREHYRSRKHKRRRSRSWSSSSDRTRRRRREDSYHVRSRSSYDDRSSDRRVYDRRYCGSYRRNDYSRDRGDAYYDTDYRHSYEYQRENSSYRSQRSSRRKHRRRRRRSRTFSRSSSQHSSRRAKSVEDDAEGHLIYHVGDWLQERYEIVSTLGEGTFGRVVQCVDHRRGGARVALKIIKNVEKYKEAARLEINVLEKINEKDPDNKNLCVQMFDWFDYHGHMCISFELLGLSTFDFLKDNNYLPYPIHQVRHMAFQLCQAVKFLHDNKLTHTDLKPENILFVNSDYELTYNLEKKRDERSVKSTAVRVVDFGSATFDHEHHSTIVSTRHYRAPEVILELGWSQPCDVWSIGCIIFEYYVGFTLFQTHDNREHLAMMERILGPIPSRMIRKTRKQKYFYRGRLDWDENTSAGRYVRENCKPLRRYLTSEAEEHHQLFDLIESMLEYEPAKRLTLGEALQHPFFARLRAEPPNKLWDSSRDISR
Data set [3] deals with Epithelial discoidin domain-containing receptor 1 (Homo sapiens) (UniProt Q08345). The data set is described as follows: Inhibition of recombinant human DDR1 (492 to end residues) at 1 uM using KKKSPGEYVNIEFG as substrate after 40 mins in presence of [gamma-33P]ATP by scintillation counting method.
Sequence of Epithelial discoidin domain-containing receptor 1 (Homo sapiens) (Q08345 whole entry, the tested form may be a part): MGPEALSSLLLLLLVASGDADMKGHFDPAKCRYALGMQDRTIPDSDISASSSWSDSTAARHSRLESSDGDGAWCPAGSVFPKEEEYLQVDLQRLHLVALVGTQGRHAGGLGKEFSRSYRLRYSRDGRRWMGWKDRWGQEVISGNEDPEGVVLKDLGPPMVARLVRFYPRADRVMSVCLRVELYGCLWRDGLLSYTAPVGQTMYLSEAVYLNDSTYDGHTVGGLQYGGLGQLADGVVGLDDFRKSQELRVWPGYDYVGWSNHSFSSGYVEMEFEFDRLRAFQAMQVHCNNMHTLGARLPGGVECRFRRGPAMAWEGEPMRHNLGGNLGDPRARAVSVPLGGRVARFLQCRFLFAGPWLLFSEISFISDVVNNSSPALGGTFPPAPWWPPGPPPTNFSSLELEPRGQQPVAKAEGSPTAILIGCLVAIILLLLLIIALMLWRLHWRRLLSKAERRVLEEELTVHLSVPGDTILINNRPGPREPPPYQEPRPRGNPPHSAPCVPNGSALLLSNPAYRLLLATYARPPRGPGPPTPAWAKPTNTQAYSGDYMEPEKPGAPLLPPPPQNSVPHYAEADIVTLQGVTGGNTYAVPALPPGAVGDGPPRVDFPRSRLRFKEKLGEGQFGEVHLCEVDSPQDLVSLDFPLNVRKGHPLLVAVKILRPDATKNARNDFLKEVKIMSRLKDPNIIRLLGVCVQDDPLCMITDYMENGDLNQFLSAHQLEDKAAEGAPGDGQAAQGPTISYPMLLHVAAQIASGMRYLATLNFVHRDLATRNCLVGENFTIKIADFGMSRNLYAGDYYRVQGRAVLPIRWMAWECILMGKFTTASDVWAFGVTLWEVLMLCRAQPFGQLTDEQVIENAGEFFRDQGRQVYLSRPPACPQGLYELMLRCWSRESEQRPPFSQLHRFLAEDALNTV
In data set [4] the target is Inhibitor of nuclear factor kappa-B kinase subunit epsilon (Homo sapiens) (UniProt Q14164). The data set is described as follows: Inhibition of recombinant full-length human IKKepsilon at 1 uM using casein as substrate after 40 mins in presence of [gamma-33P]ATP by scintillation counting method.
The target in data set [5] is NT-3 growth factor receptor (Homo sapiens) (UniProt Q16288). The data set is described as follows: Inhibition of recombinant human TrkC (510 to end residues) at 1 uM using GEEPLYWSFPAKKK as substrate after 40 mins in presence of [gamma-33P]ATP by scintillation counting method.
The target of data set [6] is Protein kinase C epsilon type (Homo sapiens) (UniProt Q02156). Kind of data set: Inhibition of recombinant human PKCepsilon (2 to end residues) at 1 uM using ERMRPRKRQGSVRRRV as substrate after 40 mins in presence of [gamma-33P]ATP by scintillation counting method.
Sequence of Protein kinase C epsilon type (Homo sapiens) (Q02156 whole entry): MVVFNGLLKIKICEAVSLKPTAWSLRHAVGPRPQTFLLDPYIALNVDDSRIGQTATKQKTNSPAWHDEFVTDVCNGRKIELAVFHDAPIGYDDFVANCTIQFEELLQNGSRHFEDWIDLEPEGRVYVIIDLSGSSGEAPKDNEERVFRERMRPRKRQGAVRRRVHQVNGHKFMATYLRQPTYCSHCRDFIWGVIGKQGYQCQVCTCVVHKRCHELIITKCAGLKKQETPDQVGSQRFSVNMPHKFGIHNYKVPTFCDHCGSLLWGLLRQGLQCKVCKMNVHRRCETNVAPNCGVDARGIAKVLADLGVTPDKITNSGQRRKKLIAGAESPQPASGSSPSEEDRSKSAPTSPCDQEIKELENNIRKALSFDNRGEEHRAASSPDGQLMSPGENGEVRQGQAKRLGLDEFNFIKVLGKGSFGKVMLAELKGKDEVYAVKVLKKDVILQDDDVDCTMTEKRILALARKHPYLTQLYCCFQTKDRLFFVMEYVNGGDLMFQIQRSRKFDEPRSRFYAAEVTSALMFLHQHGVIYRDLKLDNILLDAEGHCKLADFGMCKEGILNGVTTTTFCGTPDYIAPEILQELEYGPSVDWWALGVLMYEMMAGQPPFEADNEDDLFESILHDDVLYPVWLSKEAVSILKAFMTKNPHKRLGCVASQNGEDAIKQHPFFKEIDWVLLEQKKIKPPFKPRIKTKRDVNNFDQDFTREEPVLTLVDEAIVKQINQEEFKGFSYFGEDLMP
In data set [7] the target is Serine/threonine-protein kinase 32A (Homo sapiens) (UniProt Q8WU08). The data set is described as follows: Inhibition of recombinant full-length human STK32A at 1 uM using casein as substrate after 120 mins in presence of [gamma-33P]ATP by scintillation counting method.
The nature of data set [8]: Apparent volume of distribution in mouse at 2 mg/kg, iv or 10 mg/kg, po. Particulars: in vivo, read-out: Vz. Format: ADME, organism-based.
In data set [9] the target is Macrophage-stimulating protein receptor (Homo sapiens) (UniProt Q04912). The data set is described as follows: Inhibition of recombinant human Ron (983 to end residues) at 1 uM using GGMEDIYFEFMGGKKK as substrate after 40 mins in presence of [gamma-33P]ATP by scintillation counting method.
The subject of data set [10] is Tyrosine-protein kinase ABL1 (Homo sapiens), P00519 [M351T]. Kind of data set: Inhibition of recombinant human Abl M351T mutant (27 to end residues) at 1 uM using EAIYAAPFAKKK as substrate after 40 mins in presence of [gamma-33P]ATP by scintillation counting method.
Data set [11] deals with Tyrosine-protein kinase CSK (Homo sapiens) (UniProt P41240). Kind of data set: Inhibition of recombinant full-length human CSK at 1 uM using poly(Glu,Tyr) 4:1 as substrate after 40 mins in presence of [gamma-33P]ATP by scintillation counting method.
Sequence of Tyrosine-protein kinase CSK (Homo sapiens) (P41240 2-450 limits assumed): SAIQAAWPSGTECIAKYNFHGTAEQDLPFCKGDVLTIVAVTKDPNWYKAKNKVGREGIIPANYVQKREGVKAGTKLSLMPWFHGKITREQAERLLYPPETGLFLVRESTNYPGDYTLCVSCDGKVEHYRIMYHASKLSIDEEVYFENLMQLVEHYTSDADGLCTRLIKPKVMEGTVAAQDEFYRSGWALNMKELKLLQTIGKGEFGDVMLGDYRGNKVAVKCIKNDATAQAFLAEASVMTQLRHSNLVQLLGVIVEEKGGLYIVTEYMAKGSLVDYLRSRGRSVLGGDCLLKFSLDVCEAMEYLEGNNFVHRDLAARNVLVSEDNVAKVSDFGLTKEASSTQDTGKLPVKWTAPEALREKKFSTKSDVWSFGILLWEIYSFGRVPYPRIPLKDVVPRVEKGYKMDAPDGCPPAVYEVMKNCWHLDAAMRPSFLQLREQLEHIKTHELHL
The target in data set [12] is Serine/threonine-protein kinase PAK 6 (Homo sapiens) (UniProt Q9NQU5). Kind of data set: Inhibition of recombinant human PAK6 (382 to end residues) at 1 uM using RRRLSFAEPG as substrate after 40 mins in presence of [gamma-33P]ATP by scintillation counting method.
Data set [13] deals with Serine/threonine-protein kinase 3 (Homo sapiens) (UniProt Q13188). Kind of data set: Inhibition of recombinant human MST2 (2 to end residues) at 1 uM using myelin basic protein as substrate after 40 mins in presence of [gamma-33P]ATP by scintillation counting method.
Sequence of Serine/threonine-protein kinase 3 (Homo sapiens) (Q13188 whole entry): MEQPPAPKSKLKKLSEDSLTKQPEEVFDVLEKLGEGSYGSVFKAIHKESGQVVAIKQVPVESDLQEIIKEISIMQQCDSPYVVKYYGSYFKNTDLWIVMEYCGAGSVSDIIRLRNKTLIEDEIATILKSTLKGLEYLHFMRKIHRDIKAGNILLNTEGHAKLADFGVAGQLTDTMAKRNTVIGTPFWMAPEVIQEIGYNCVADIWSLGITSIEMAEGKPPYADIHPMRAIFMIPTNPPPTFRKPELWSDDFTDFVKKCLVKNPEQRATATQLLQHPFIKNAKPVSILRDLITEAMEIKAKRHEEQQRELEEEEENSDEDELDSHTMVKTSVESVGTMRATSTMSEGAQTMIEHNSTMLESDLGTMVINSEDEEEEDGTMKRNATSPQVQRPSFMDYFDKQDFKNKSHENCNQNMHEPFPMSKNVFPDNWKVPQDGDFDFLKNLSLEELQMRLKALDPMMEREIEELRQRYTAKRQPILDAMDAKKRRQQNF
Data set [14] has as its target Mitogen-activated protein kinase 9 (Homo sapiens) (UniProt P45984). Kind of data set: Inhibition of recombinant full-length human JNK2alpha2 at 1 uM using ATF2 as substrate after 40 mins in presence of [gamma-33P]ATP by scintillation counting method.
Data set [15] deals with Fibroblast growth factor receptor 2 (Homo sapiens), P21802 [N549H]. Kind of data set: Inhibition of recombinant human FGFR2 N549H mutant (456 to 770 residues) at 1 uM using GGEEEEYFELVKKKK as substrate after 40 mins in presence of [gamma-33P]ATP by scintillation counting method.
Data set [16] in a line: Metabolic stability in rat liver microsomes assessed as compound remaining at 1 uM in presence of NADPH as cofactor measured after 30 mins by LC-MS/MS method. It counts as ADME, microsome. Particulars: read-out: Stability. Background: Liver microsomes are a subcellular fraction often used to study metabolism.
In data set [17] the target is Phosphatidylinositol 4,5-bisphosphate 3-kinase catalytic subunit gamma isoform (Homo sapiens) (UniProt P48736). The data set is described as follows: Inhibition of recombinant full-length human p120g at 1 uM using phosphatidylinositol-4,5-bisphosphate as substrate after 40 mins in presence of [gamma-33P]ATP by scintillation counting method.
The subject of data set [18] is Hepatocyte growth factor receptor (Homo sapiens), P08581 [D1246H]. The data set is described as follows: Inhibition of recombinant human Met D1246H mutant (974 to end residues) at 1 uM using KKKGQEEEYVFIE as substrate after 40 mins in presence of [gamma-33P]ATP by scintillation counting method.
For data set [19], the target named is Insulin receptor (Homo sapiens) (UniProt P06213). Kind of data set: Inhibition of recombinant human IR (1005 to 1310 residues) at 1 uM using KKSRGDYMTMQIG as substrate after 40 mins in presence of [gamma-33P]ATP by scintillation counting method.
Sequence of Insulin receptor (Homo sapiens) (P06213 28-758 limits assumed): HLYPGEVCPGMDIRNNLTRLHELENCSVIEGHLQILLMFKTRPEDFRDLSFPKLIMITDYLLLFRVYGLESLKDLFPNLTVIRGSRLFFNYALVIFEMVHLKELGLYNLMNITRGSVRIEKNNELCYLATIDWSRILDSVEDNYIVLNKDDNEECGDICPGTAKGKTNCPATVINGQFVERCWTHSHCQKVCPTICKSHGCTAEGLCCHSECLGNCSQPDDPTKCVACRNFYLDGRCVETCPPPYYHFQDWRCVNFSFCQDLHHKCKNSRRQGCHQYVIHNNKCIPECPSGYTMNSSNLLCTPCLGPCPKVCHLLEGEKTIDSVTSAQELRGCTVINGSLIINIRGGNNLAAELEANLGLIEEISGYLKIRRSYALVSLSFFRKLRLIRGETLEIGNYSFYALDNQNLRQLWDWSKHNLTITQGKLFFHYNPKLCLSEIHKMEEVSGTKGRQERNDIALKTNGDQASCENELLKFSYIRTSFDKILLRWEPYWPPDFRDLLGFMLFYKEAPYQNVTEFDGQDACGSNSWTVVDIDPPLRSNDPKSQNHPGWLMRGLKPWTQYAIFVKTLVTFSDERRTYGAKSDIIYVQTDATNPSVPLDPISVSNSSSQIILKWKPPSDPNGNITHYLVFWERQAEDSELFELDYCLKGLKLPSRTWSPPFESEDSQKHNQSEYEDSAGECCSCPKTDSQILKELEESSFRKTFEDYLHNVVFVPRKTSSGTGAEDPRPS
Sequence of Insulin receptor (Homo sapiens) (P06213 763-1382 limits assumed): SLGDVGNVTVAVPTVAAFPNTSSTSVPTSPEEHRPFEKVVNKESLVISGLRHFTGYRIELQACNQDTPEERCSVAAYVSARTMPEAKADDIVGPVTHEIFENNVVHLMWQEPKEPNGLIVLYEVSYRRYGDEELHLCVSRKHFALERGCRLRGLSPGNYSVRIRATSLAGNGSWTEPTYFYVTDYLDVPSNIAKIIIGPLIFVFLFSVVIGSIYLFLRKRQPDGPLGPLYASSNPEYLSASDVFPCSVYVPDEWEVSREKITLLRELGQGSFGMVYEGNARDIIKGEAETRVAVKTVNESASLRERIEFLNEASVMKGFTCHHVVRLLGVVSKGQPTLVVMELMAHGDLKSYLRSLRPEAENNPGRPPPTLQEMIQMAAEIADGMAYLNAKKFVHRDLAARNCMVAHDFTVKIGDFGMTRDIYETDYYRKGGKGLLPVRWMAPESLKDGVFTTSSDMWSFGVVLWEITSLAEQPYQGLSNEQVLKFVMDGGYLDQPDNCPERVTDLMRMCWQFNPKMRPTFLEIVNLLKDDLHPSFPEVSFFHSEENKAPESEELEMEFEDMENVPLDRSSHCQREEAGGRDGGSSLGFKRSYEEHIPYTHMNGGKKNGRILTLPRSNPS
In data set [20] the target is Mitogen-activated protein kinase kinase kinase kinase 1 (Homo sapiens) (UniProt Q92918). Kind of data set: Inhibition of recombinant human HPK1 (1 to 346 residues) at 1 uM using myelin basic protein as substrate after 40 mins in presence of [gamma-33P]ATP by scintillation counting method.
The subject of data set [21] is Mast/stem cell growth factor receptor Kit (Homo sapiens), P10721 [V560G]. Kind of data set: Inhibition of recombinant human cKit V560G mutant (544 to end residues) at 1 uM using GGMEDIYFEFMGGKKK as substrate after 40 mins in presence of [gamma-33P]ATP by scintillation counting method.
The test system of data set [22] is Hepatocyte growth factor receptor (Homo sapiens), P08581 [M1268T]. The data set is described as follows: Inhibition of recombinant human Met M1268T mutant (974 to end residues) at 1 uM using KKKGQEEEYVFIE as substrate after 40 mins in presence of [gamma-33P]ATP by scintillation counting method.
Data set [23] deals with Ephrin type-A receptor 2 (Homo sapiens) (UniProt P29317). The data set is described as follows: Inhibition of recombinant human EPHA2 (596 to 900 residues) at 1 uM using poly(Glu,Tyr) 4:1 as substrate after 40 mins in presence of [gamma-33P]ATP by scintillation counting method.
The target of data set [24] is Proto-oncogene tyrosine-protein kinase Src (Homo sapiens) (UniProt P12931). The data set is described as follows: Inhibition of recombinant human Src (1 to 530 residues) at 1 uM using GGEEEEYFELVKKKK as substrate after 40 mins in presence of [gamma-33P]ATP by scintillation counting method.

Sequence of Serine/threonine-protein kinase 17B (Homo sapiens) (O94768 whole entry): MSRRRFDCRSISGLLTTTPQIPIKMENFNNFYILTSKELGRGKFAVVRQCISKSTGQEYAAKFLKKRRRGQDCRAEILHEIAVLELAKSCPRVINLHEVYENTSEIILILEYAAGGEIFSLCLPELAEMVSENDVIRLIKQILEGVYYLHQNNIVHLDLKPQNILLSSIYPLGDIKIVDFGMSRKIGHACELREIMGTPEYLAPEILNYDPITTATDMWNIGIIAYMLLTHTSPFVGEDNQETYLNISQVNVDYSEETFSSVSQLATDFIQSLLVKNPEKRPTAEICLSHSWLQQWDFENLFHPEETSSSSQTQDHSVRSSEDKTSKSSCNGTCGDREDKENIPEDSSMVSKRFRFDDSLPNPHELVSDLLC

For the compound `CS(=O)(=O)c1ccc(-n2nc(-c3cnc4[nH]ccc4c3)c3c(N)ncnc32)cc1`, the inhibition in data set [1] was 7%; in data set [2], 13%; in data set [3], 92%; in data set [4], 3%; in data set [5] it was 2%; in data set [6], 2%. The inhibition is 6% in data set [7]; 2% in data set [9]; 77% in data set [10]; 3% in data set [11]; 7% in data set [12]; 8% in [13]. The inhibition in data set [14] is -6%; in [15], 70%; in data set [17], 10%; in data set [18], 1%; in data set [19], -7%; in data set [20], 2%. For the same compound, the inhibition was 76% in [21], -2% in data set [22], 9% in [23] and 64% in data set [24]. Besides, the Vd in data set [8] is 2.15 L/kg. The remaining at 0.5 h, 1 µM in [16] turned out to be 63%.
